Assay results taken from US10640544B2, “Antibody-coupled cyclic peptide tyrosine tyrosine compounds as modulators of neuropeptide Y receptors” (JANSSEN PHARMACEUTICA NV, priority 2016, dated 2020).

Assays:
[1] = Single dose effect on food intake and body weight in Sprague-Dawley rats; assay type: in vivo, rat; parameters: body weight change: unit not given here; details: single dose 0.3 nmol/kg s.c.
Procedure: Compound 1 was evaluated for its ability to reduce foot intake and body weight in Sprague-Dawley after a single dose. The animals were obtained from Charles River Labs (Wilmington, Mass.) at 200-225 g body weight and used within one week of delivery. They were housed one per cage on alpha dry bedding and a plastic tube for enrichment in a temperature-controlled room with 12-hour light/dark cycle. […] Animal weights were taken and recorded for each rat prior to dosing.
Body weights and food intake were measured 1, 2 and 3 days after dosing and the percentages of weight loss and reduction in food intake were calculated. […] All data are presented as the mean±SEM (Tables 18-20).

[2] = OGTT in DIO mice after 8 days of treatment (blood glucose, insulin); assay type: in vivo, mouse; details: 8 days treatment, 0.3 nmol/kg s.c. every day
Procedure: (§1) Compound 1 was evaluated for its ability to reduce foot intake and body weight and improve glucose homeostasis on repeat dosing in male DIO C57Bl/6 mice over a period of 8 days. Male DIO C57BL/6N mice (20 weeks of age, 14 weeks on high fat diet) were obtained from Taconic Laboratory. […] Animals were acclimated to the facility for at least one week prior to the start of the experiment.
(§2) The day prior to dosing, mice were grouped based on individual body weights. At 3:00-4:[…] for each of the next 8 days, animals and food intake were weighed. […] After 8 days, mice are fasted for 5 hours and then given a 2 g/kg bolus of glucose orally at t=0. At t=0, 30, 60, 90, and 120 minutes post glucose challenge blood glucose is measured and at t=0, 30, and 90 minutes blood in drawn to measure plasma insulin. […] All data are presented as the mean±SEM (FIG. 7, FIG. 8, and Tables 8-11).

[3] = Weight loss in diet-induced obese mice: chronic dosing (body weight, fed blood glucose); assay type: in vivo, mouse; details: DIO mice, after 8 days of treatment; 0.3 nmol/kg s.c. every day
Procedure: as §1, §2

Dulaglutide: long-acting GLP-1 receptor agonist, comparator
Total Food Consumption over three days [1]: 87.4 ± 2.0
body weight change ([1]; Day 0): 0.0 ± 0.0
daily food intake ([1]; Day 0): 26.6 ± 0.8
absolute body weight ([1]; Day 0, in g (unit assumed)): 270.3 ± 3.0
body weight change ([1]; Day 1): 10.6 ± 1.6
daily food intake ([1]; Day 1): 27.3 ± 1.2
absolute body weight ([1]; Day 1, in g (unit assumed)): 280.8 ± 4.2
body weight change ([1]; Day 2): 22.5 ± 0.8
daily food intake ([1]; Day 2): 30.0 ± 0.7
absolute body weight ([1]; Day 2, in g (unit assumed)): 292.47 ± 3.6
body weight change ([1]; Day 3): 28.7 ± 0.6
daily food intake ([1]; Day 3): 30.1 ± 0.7
absolute body weight ([1]; Day 3, in g (unit assumed)): 299.0 ± 3.3
body weight change ([1]; Day −1 (relative to Day 0)): −6.3 ± 0.8
absolute body weight ([1]; Day −1, in g (unit assumed)): 264.0 ± 3.1
blood glucose Delta AUC (OGTT) [2]: 6668 ± 1846 mg/dl/120 min
blood glucose Total AUC (OGTT) [2]: 15758 ± 1054 mg/dl/120 min
blood glucose during OGTT ([2]; 0 min after glucose challenge): 76 ± 9 mg/dL
insulin during OGTT ([2]; 0 min after glucose challenge): 0.6 ± 0.1 ng/mL
blood glucose during OGTT ([2]; 30 min after glucose challenge): 151 ± 14 mg/dL
insulin during OGTT ([2]; 30 min after glucose challenge): 1.7 ± 0.2 ng/mL
blood glucose during OGTT ([2]; 60 min after glucose challenge): 174 ± 17 mg/dL
blood glucose during OGTT ([2]; 90 min after glucose challenge): 104 ± 10 mg/dL
insulin during OGTT ([2]; 90 min after glucose challenge): 0.7 ± 0.2 ng/mL
blood glucose during OGTT ([2]; 120 min after glucose challenge): 119 ± 9 mg/dL
fed Blood Glucose [3]: 114 ± 13 mg/dL
